# Measured values taken from ChEMBL document CHEMBL4742392, “Tetrahydropyridopyrazine modulators of GPR6” (2019).
# How the values were obtained:
# [1] = Cardiotoxicity in Beagle dog at 30 to 300 mg/kg, po by telemetry analysis; format: toxicity, organism-based, Canis lupus familiaris; details: in vivo, dose 30-300 mg/kg
# [2] = species: Rattus norvegicus; assay: Neuroprotective actvity against 6-OHDA-induced rat Parkinson's disease model assessed as improved locomotory actvity by open-field test; format: functional, organism-based; details: dose 5-10 mg/kg
smiles,measurement,setting,value
CC(=O)N1CCc2nc(N3CCC(Oc4ccc(F)cc4F)CC3)c(N[C@@H]3CCOC3)nc2C1,Activity,[1],Non-Toxic
same,Activity,[2],Dose-dependent effect
